Experimental data taken from patent publication US9474790B2, “Stable, protracted GLP-1/glucagon receptor co-agonists for medical use” (Novo Nordisk A/S, priority 2013, dated 2016).
Numbered stars: 1 amine (or outer) side, 2 acyl side, 3 side chain; on linkers, the order of the positions; unused ones are H or OH. Square brackets hold non-standard residues; d marks the D form. Side chains are listed from the residue outwards. Peptide text beside a SMILES is read from it. * marks the point of attachment. C18 diacid = O=C(O)CCCCCCCCCCCCCCCCC(=O)*; γGlu = O=C(O)[C@H](CCC(=O)[*:2])N[*:1]; Ac4c = NC1(C(=O)O)CCC1; AEEA = NCCOCCOCC(=O)O; Aib = CC(C)(N)C(=O)O

Biological target: T1, human GLP-1 receptor (Homo sapiens, UniProt P43220)
T1 construct: expressed in transfected cells; host or cells: BHK cells (parent BHKTS13), clone FCW467-12A/KZ10-1, with CRE luciferase
Assay: GLP-1 receptor binding, 125I-GLP-1 displacement SPA on isolated membranes
Conditions: displacement of 125I-GLP-1 from membranes; read-out: IC50 GLP-1R
In short: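 SPA displacement of 125I-GLP-1(7-36)NH2 from membranes of BHK cells expressing human GLP-1 receptor, with WGA beads, in 50 mM HEPES, 5 mM EGTA, 5 mM MgCl2, 0.005% Tween 20, pH 7.4. Incubated 2 h at 30°C; IC50 by non-linear regression, run at ≤0.001% or 2.0% final serum albumin.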

T1 sequence (P43220 24-463): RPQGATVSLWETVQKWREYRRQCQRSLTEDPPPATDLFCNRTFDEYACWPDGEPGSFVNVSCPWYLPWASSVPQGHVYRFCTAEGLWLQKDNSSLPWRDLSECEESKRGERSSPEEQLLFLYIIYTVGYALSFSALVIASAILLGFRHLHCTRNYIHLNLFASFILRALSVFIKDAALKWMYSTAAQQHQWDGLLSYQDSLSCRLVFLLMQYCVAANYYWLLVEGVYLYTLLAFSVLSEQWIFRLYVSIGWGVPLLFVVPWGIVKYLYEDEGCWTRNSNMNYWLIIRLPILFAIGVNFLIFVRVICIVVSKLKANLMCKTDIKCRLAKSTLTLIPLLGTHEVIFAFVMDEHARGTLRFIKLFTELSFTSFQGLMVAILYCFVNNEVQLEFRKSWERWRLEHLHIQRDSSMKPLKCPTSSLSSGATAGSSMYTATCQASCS

| Structure (SMILES) | IC50 |
| --- | --- |
| CC(C)C[C@H](NC(=O)[C@H](Cc1ccc(O)cc1)NC(=O)[C@H](CCCCN)NC(=O)[C@H](CO)NC(=O)[C@H](CC(C)C)NC(=O)[C@H](CC(=O)O)NC(=O)[C@H](CO)NC(=O)[C@@H](NC(=O)[C@H](Cc1ccccc1)NC(=O)[C@@H](NC(=O)CNC(=O)[C@H](CCC(N)=O)NC(=O)C(C)(C)NC(=O)[C@@H](N)Cc1c[nH]cn1)[C@@H](C)O)[C@@H](C)O)C(=O)N[C@@H](CC(=O)O)C(=O)N[C@@H](C)C(=O)N[C@@H](CCCNC(=N)N)C(=O)N[C@@H](CCCNC(=N)N)C(=O)N[C@@H](C)C(=O)N[C@@H](CCCNC(=N)N)C(=O)N[C@@H](CC(=O)O)C(=O)N[C@@H](Cc1ccccc1)C(=O)N[C@H](C(=O)N[C@@H](CCC(N)=O)C(=O)N[C@@H](Cc1c[nH]c2ccccc12)C(=O)N[C@@H](CC(C)C)C(=O)N[C@@H](CC(C)C)C(=O)N[C@@H](CO)C(=O)N[C@@H](CCCCNC(=O)CC[C@H](NC(=O)CC[C@H](NC(=O)COCCOCCNC(=O)COCCOCCNC(=O)CC[C@H](NC(=O)CCCCCCCCCCCCCCCCC(=O)O)C(=O)O)C(=O)O)C(=O)O)C(N)=O)C(C)C [Example 66, N^ε29-[(4S)-4-carboxy-4-[[(4S)-4-carboxy-4-[[2-[2-[2-[[2-[2-[2-[[(4S)-4-carboxy-4-(17-carboxyheptadecanoylamino)butanoyl]amino]ethoxy]ethoxy]acetyl]amino]ethoxy]ethoxy]acetyl]amino]butanoyl]amino]butanoyl]-[Aib2,Leu10,Ala16,Arg20,Leu27,Ser28,Lys29]-Glucagon amide] (H-H[Aib]QGTFTSDLSKYLDARRARDFVQWLLSK([γGlu-γGlu-AEEA-AEEA-γGlu-C18 diacid])-NH2; N-terminus assumed) | 0.6 nM |
| CC(C)C[C@H](NC(=O)[C@H](Cc1ccc(O)cc1)NC(=O)[C@H](CCCCN)NC(=O)[C@H](CO)NC(=O)[C@H](CC(C)C)NC(=O)[C@H](CC(=O)O)NC(=O)[C@H](CO)NC(=O)[C@@H](NC(=O)[C@H](Cc1ccccc1)NC(=O)[C@@H](NC(=O)CNC(=O)[C@H](CCC(N)=O)NC(=O)C(C)(C)NC(=O)[C@@H](N)Cc1c[nH]cn1)[C@@H](C)O)[C@@H](C)O)C(=O)N[C@@H](CCC(=O)O)C(=O)N[C@@H](CO)C(=O)N[C@@H](CCCNC(=N)N)C(=O)N[C@@H](CCCNC(=N)N)C(=O)N[C@@H](C)C(=O)N[C@@H](CCCNC(=N)N)C(=O)N[C@@H](CCC(=O)O)C(=O)N[C@@H](Cc1ccccc1)C(=O)N[C@H](C(=O)N[C@@H](CCC(N)=O)C(=O)N[C@@H](Cc1c[nH]c2ccccc12)C(=O)N[C@@H](CC(C)C)C(=O)N[C@@H](CC(C)C)C(=O)N[C@@H](CCCCNC(=O)CC[C@H](NC(=O)CC[C@H](NC(=O)[C@H](CO)NC(=O)[C@H](CCC(=O)O)NC(=O)[C@H](CO)NC(=O)CC[C@H](NC(=O)CC[C@H](NC(=O)CCCCCCCCCCCCCCCCC(=O)O)C(=O)O)C(=O)O)C(=O)O)C(=O)O)C(=O)N[C@H](C(N)=O)[C@@H](C)O)C(C)C [Example 67, N^ε28-[(4S)-4-carboxy-4-[[(4S)-4-carboxy-4-[[(2S)-2-[[(2S)-4-carboxy-2-[[(2S)-2-[[(4S)-4-carboxy-4-[[(4S)-4-carboxy-4-(17-carboxyheptadecanoylamino)butanoyl]amino]butanoyl]amino]-3-hydroxypropanoyl]amino]butanoyl]amino]-3-hydroxypropanoyl]amino]butanoyl]amino]butanoyl]-[Aib2,Leu10,Glu15,Arg20,Glu21,Leu27,Lys28]-Glucagon amide] (H-H[Aib]QGTFTSDLSKYLESRRAREFVQWLLK([γGlu-γGlu-Ser-Glu-Ser-γGlu-γGlu-C18 diacid])T-NH2; N-terminus assumed) | 0.3 nM |
| CC(C)C[C@H](NC(=O)[C@H](Cc1ccc(O)cc1)NC(=O)[C@H](CCCCN)NC(=O)[C@H](CO)NC(=O)[C@H](CC(C)C)NC(=O)[C@H](CC(=O)O)NC(=O)[C@H](CO)NC(=O)[C@@H](NC(=O)[C@H](Cc1ccccc1)NC(=O)[C@@H](NC(=O)CNC(=O)[C@H](CCC(N)=O)NC(=O)C1(NC(=O)[C@@H](N)Cc2c[nH]cn2)CCC1)[C@@H](C)O)[C@@H](C)O)C(=O)N[C@@H](CCC(=O)O)C(=O)N[C@@H](CO)C(=O)N[C@@H](CCCCN)C(=O)N[C@@H](CCCNC(=N)N)C(=O)N[C@@H](C)C(=O)N[C@@H](CCCNC(=N)N)C(=O)N[C@@H](CCC(=O)O)C(=O)N[C@@H](Cc1ccccc1)C(=O)N[C@H](C(=O)N[C@@H](CCC(N)=O)C(=O)N[C@@H](Cc1c[nH]c2ccccc12)C(=O)N[C@@H](CC(C)C)C(=O)N[C@@H](CC(C)C)C(=O)N[C@@H](CCCCNC(=O)CC[C@H](NC(=O)CC[C@H](NC(=O)[C@H](CO)NC(=O)[C@H](CCC(=O)O)NC(=O)[C@H](CO)NC(=O)CC[C@H](NC(=O)CC[C@H](NC(=O)CCCCCCCCCCCCCCCCC(=O)O)C(=O)O)C(=O)O)C(=O)O)C(=O)O)C(=O)N[C@H](C(N)=O)[C@@H](C)O)C(C)C [Example 68, N^ε28-[(4S)-4-carboxy-4-[[(4S)-4-carboxy-4-[[(2S)-2-[[(2S)-4-carboxy-2-[[(2S)-2-[[(4S)-4-carboxy-4-[[(4S)-4-carboxy-4-(17-carboxyheptadecanoylamino)butanoyl]amino]butanoyl]amino]-3-hydroxypropanoyl]amino]butanoyl]amino]-3-hydroxypropanoyl]amino]butanoyl]amino]butanoyl]-[Acb2,Leu10,Glu15,Lys17,Arg20,Glu21,Leu27,Lys28]-Glucagon amide] (H-H[Ac4c]QGTFTSDLSKYLESKRAREFVQWLLK([γGlu-γGlu-Ser-Glu-Ser-γGlu-γGlu-C18 diacid])T-NH2; N-terminus assumed) | 0.3 nM |
| CC(C)C[C@H](NC(=O)[C@H](Cc1ccc(O)cc1)NC(=O)[C@H](CCCCN)NC(=O)[C@H](CO)NC(=O)[C@H](CC(C)C)NC(=O)[C@H](CC(=O)O)NC(=O)[C@H](CO)NC(=O)[C@@H](NC(=O)[C@H](Cc1ccccc1)NC(=O)[C@@H](NC(=O)CNC(=O)[C@H](CCC(N)=O)NC(=O)C(C)(C)NC(=O)[C@@H](N)Cc1c[nH]cn1)[C@@H](C)O)[C@@H](C)O)C(=O)N[C@@H](CCC(=O)O)C(=O)N[C@@H](CO)C(=O)N[C@@H](CCCCN)C(=O)N[C@@H](CCCNC(=N)N)C(=O)N[C@@H](C)C(=O)N[C@@H](CCCNC(=N)N)C(=O)N[C@@H](CO)C(=O)N[C@@H](Cc1ccccc1)C(=O)N[C@H](C(=O)N[C@@H](CCC(N)=O)C(=O)N[C@@H](Cc1c[nH]c2ccccc12)C(=O)N[C@@H](CC(C)C)C(=O)N[C@@H](CC(C)C)C(=O)N[C@@H](CCCCNC(=O)CC[C@H](NC(=O)CC[C@H](NC(=O)[C@H](CO)NC(=O)[C@H](CCC(=O)O)NC(=O)[C@H](CO)NC(=O)CC[C@H](NC(=O)CC[C@H](NC(=O)CCCCCCCCCCCCCCCCC(=O)O)C(=O)O)C(=O)O)C(=O)O)C(=O)O)C(=O)N[C@H](C(N)=O)[C@@H](C)O)C(C)C [Example 69, N^ε28-[(4S)-4-carboxy-4-[[(4S)-4-carboxy-4-[[(2S)-2-[[(2S)-4-carboxy-2-[[(2S)-2-[[(4S)-4-carboxy-4-[[(4S)-4-carboxy-4-(17-carboxyheptadecanoylamino)butanoyl]amino]butanoyl]amino]-3-hydroxypropanoyl]amino]butanoyl]amino]-3-hydroxypropanoyl]amino]butanoyl]amino]butanoyl]-[Aib2,Leu10,Glu15,Lys17,Arg20,Ser21,Leu27,Lys28]-Glucagon amide] (H-H[Aib]QGTFTSDLSKYLESKRARSFVQWLLK([γGlu-γGlu-Ser-Glu-Ser-γGlu-γGlu-C18 diacid])T-NH2; N-terminus assumed) | 0.2 nM |
